Read-outs that look alike come from different tables or passages of the source. Starred links: 1 amine or outer side, 2 acyl side, 3 side chain; linkers in the order of their positions; H or OH if unused. Non-standard residues stand in square brackets, D forms with d. Residues, ends and D or L forms follow the SMILES beside them. *: point of attachment. X4 = Cc1cc(F)cc(-c2cnc(NCCNC(=O)CCOCCOCCOCCOCCC(=O)*)c(-c3nc4ccc(Cl)cc4[nH]3)c2N2CCC(N)CC2)c1; X1 = Cc1cc(F)cc(-c2cnc(NCCNC(=O)CCOCCC(=O)*)c(-c3nc4ccc(Cl)cc4[nH]3)c2N2CCC(N)CC2)c1; Dolaproine = CO[C@@H]([C@@H]1CCCN1)[C@@H](C)C(=O)O; Dil = CC[C@H](C)[C@H](NC)[C@@H](CC(=O)O)OC; PABC = O=C(OCc1ccc(N[*:1])cc1)[*:2]; X2 = C[C@@H](N*)[C@@H](O)c1ccccc1; Cit = NC(=O)NCCC[C@H](N)C(=O)O; NMeV = CN[C@H](C(=O)O)C(C)C
What was measured:
Type in all cases: cell-based
[1] = target: T1, human somatostatin receptor subtype 2 (Homo sapiens, UniProt P30874); assay: Functional cAMP assay for SSTR2 agonists (HTRF) in CHO-K1 cells; conditions: CHO-K1 cells stably expressing human SST2, 20 min
T1 construct: expressed in transfected cells
T1 sequence (P30874 whole entry): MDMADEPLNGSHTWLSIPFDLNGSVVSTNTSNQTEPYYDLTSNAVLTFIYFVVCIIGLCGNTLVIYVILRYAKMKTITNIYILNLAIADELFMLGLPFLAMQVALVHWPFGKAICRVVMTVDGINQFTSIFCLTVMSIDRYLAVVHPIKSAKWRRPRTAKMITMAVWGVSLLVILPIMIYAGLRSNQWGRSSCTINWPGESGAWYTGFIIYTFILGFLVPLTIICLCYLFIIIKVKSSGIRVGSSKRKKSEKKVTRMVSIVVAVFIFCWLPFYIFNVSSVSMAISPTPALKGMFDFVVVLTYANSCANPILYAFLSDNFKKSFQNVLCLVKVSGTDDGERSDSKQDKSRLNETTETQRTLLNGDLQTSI
How it was run: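 CHO-K1 cells stably expressing receptor, plated 4 days before assay, treated 20 min at 37° C. with compound (typically 0-10,000 nM final) plus IBMX and 1.6 μM NKH477 to raise cAMP. HTRF read, 665/620 nm ratio; cAMP from standard curve, EC50 fitted.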

[2] = tested on: NCI-H524 (ATCC) human small cell lung cancer cells
Protocol: SMDCs of the present invention were assessed in an in vitro assay evaluating the inhibition of cell proliferation. NCI-H524 (ATCC) human small cell lung cancer cells were plated in 96-well V-bottom plates (Costar) at a concentration of 5,000 cells/well. 24 h later, the cells were treated for 2 h with a SMDC. SMDC starting dose was 1 uM and two-fold serial dilutions were done for a total of 11 points. After 2 h of treatment, cells were spun down, and the drug-containing media was removed, and fresh complete media was added and used to resuspend the cells, which were spun again. After removal of the media, the cells were resuspended in complete medium and incubated for an additional 70 h. Cell proliferation was assessed using the CellTiter Glo Assay according to the standard protocol (Promega). Luminescence was measured using a TECAN plate reader. Percent proliferation inhibition was calculated using the following formula: % inhibition=(Luminescence Control−Luminescence Treatment)/Luminescence Control*100. IC50 curves were generated using the nonlinear regression analysis (four-parameter) with GraphPad Prism 9.

SST2 = target: T2, SST2 (Homo sapiens, UniProt P30874); assay: PathHunter CHO-K1 SST2 internalization assay; conditions: PathHunter CHO-K1 SST2, 90 min
T2 construct: host or cells: PathHunter CHO-K1 SST2 cells
T2 sequence (P30874 whole entry): as above
Protocol: SMDCs of the present invention were assessed in vitro using the human PathHunter CHO-K1 SST2 β-arrestin2 and PathHunter CHO-K1 SST2 Internalization Assays from DiscoverX. The CHO-K cells were seeded in 20 μLs of cell culture medium in a white-walled 384 well tissue culture-compatible plate at a density of 2500 cells/well. After a 48-hour incubation, cells were treated with 5 μLs of a 1:3 serially diluted SST2 SMDC prepared at 5× concentration with a final top compound concentration of 10 uM for 90 min at 37 C and in 5% CO2. 11 dilutions were tested as well as one treatment that was compound free. After incubation, the media containing treatments were discarded and 20 μL of a working solution of Beta-Glo from Promega Beta-Glo Assay System was added to each well. The plate was then incubated for 60 min at room temperature in the dark. Luminescence was measured using a Tecan plate reader. IC50 curves were generated using the nonlinear regression analysis (four-parameters) with GraphPad Prism 9. Results were the average of duplicates and are corrected for background.

[3] = 2 h treatment, washout, additional 70 h, read-out: H524 EC50

Row | Compound | EC50 ([1]; read-out: hSST2 cAMP Avg EC50) | EC50 ([2]; 2 h) | EC50 (SST2; read-out: Internalization EC50) | EC50 ([1]; hSST2 cAMP Avg EC50 (nM)) | EC50 [2, 3] | EC50 (SST2; Internalization EC50 (nM))
1 | COc1cc2cc(c1Cl)N(C)C(=O)CC(OC(=O)[C@@H](C)N(C)C(=O)CCSSCCC(=O)NCCNc1ncc(-c3cc(C)cc(F)c3)c(N3CCC(N)CC3)c1-c1nc3ccc(Cl)cc3[nH]1)[C@]1(C)OC1[C@@H](C)C1C[C@@](O)(NC(=O)O1)[C@H](OC)/C=C/C=C(\C)C2 (stereo partly drawn) [Compound 20, (2S,5S,6S,16E,18E,20R,21S)-11-chloro-21-hydroxy-12,20-dimethoxy-2,5,9,16-tetramethyl-8,23-dioxo-4,24-dioxa-9,22-diazatetracyclo[19.3.1.1^10,^14.0^3,^5]hexacosa-10,12,14(26),16,18-pentaen-6-yl (2R)-2-[3-({2-[(2-{[4-(4-aminopiperidin-1-yl)-3-(6-chloro-1H-1,3-benzodiazol-2-yl)-5-(3-fluoro-5-methylphenyl)pyridin-2-yl]amino}ethyl)-carbamoyl]ethyl}disulfanyl)-N-methylpropanamido]propanoate] | 0.27 nM | 31.6 nM | 6.3 nM | – | – | –
2 | COc1cc2cc(c1Cl)N(C)C(=O)CC(OC(=O)[C@@H](C)N(C)C(=O)CCSSCCOCCOCCOCCOCCC(=O)NCCNc1ncc(-c3cc(C)cc(F)c3)c(N3CCC(N)CC3)c1-c1nc3ccc(Cl)cc3[nH]1)[C@]1(C)OC1[C@@H](C)C1C[C@@](O)(NC(=O)O1)[C@H](OC)/C=C/C=C(\C)C2 (stereo partly drawn) [Compound 21] | 0.41 nM | 22.4 nM | 17.2 nM | – | – | –
3 | COc1cc2cc(c1Cl)N(C)C(=O)CC(OC(=O)[C@@H](C)N(C)C(=O)CCSSCCOCCOCCOCCOCCOCCOCCOCCOCCC(=O)NCCNc1ncc(-c3cc(C)cc(F)c3)c(N3CCC(N)CC3)c1-c1nc3ccc(Cl)cc3[nH]1)[C@]1(C)OC1[C@@H](C)C1C[C@@](O)(NC(=O)O1)[C@H](OC)/C=C/C=C(\C)C2 (stereo partly drawn) [Compound 22] | 0.36 nM | 27.1 nM | 26 nM | – | – | –
4 | COc1cc2cc(c1Cl)N(C)C(=O)CC(OC(=O)[C@@H](C)N(C)C(=O)CCSSCCC(=O)NCCNc1ncc(-c3cc(C)cc(F)c3)c(N3CCC(N)CC3)c1-c1nc3ccc(C(N)=O)cc3[nH]1)[C@]1(C)OC1[C@@H](C)C1C[C@@](O)(NC(=O)O1)[C@H](OC)/C=C/C=C(\C)C2 (stereo partly drawn) [Compound 23, (16E,18E)-11-chloro-21-hydroxy-12,20-dimethoxy-2,5,9,16-tetramethyl-8,23-dioxo-4,24-dioxa-9,22-diazatetracyclo[19.3.1.1^10,^14.0^3,^5]hexacosa-10,12,14(26),16,18-pentaen-6-yl 2-[3-({2-[(2-{[4-(4-aminopiperidin-1-yl)-3-(6-carbamoyl-1H-1,3-benzodiazol-2-yl)-5-(3-fluoro-5-methylphenyl)pyridin-2-yl]amino}ethyl)carbamoyl]ethyl}disulfanyl)-N-methylpropanamido]propanoate] | 0.66 nM | 132 nM | 245 nM | – | – | –
5 | Cc1cc(F)cc(-c2cnc(NCCNC(=O)CCOCCC(=O)NCCNC(=O)c3c(C)[nH]c(/C=C4\C(=O)Nc5ccc(F)cc54)c3C)c(-c3nc4ccc(Cl)cc4[nH]3)c2N2CCC(N)CC2)c1 [Compound 29, N-(2-{[4-(4-aminopiperidin-1-yl)-3-(6-chloro-1H-1,3-benzodiazol-2-yl)-5-(3-fluoro-5-methylphenyl)pyridin-2-yl]amino}ethyl)-3-[2-({2-[(5-{[(3Z)-5-fluoro-2-oxo-2,3-dihydro-1H-indol-3-ylidene]methyl}-2,4-dimethyl-1H-pyrrol-3-yl)formamido]ethyl}carbamoyl)ethoxy]propenamide] | 0.065 nM | > 10000 nM | 2.2 nM | – | – | –
6 | CC[C@H](C)[C@@H]([C@@H](CC(=O)N1CCC[C@H]1[C@H](OC)[C@@H](C)C(=O)N[C@H](C)[C@@H](O)c1ccccc1)OC)N(C)C(=O)[C@@H](NC(=O)[C@H](C(C)C)N(C)C(=O)OCc1ccc(NC(=O)[C@H](CCCNC(N)=O)NC(=O)[C@@H](NC(=O)CCOCCOCCOCCOCCC(=O)NCCNc2ncc(-c3cc(C)cc(F)c3)c(N3CCC(O)CC3)c2-c2nc3ccc(Cl)cc3[nH]2)C(C)C)cc1)C(C)C [Compound 31] | 1700 nM | 1060 nM | > 1000 nM | – | – | –
7 | CC[C@H](C)[C@@H]([C@@H](CC(=O)N1CCC[C@H]1[C@H](OC)[C@@H](C)C(=O)N[C@H](C)[C@@H](O)c1ccccc1)OC)N(C)C(=O)[C@@H](NC(=O)[C@H](C(C)C)N(C)C(=O)OCc1ccc(NC(=O)[C@H](CCCNC(N)=O)NC(=O)[C@@H](NC(=O)CN2CCN(CC(=O)O)CCN(CC(=O)NCCNc3ncc(-c4cc(C)cc(F)c4)c(N4CCC(N)CC4)c3-c3nc4ccc(Cl)cc4[nH]3)CC2)C(C)C)cc1)C(C)C [Compound 33] | 0.63 nM | 274 nM | 34.9 nM | – | – | –
8 | CC[C@H](C)[C@@H]([C@@H](CC(=O)N1CCC[C@H]1[C@H](OC)[C@@H](C)C(=O)N[C@H](C)[C@@H](O)c1ccccc1)OC)N(C)C(=O)[C@@H](NC(=O)[C@H](C(C)C)N(C)C(=O)CNC(=O)[C@H](Cc1ccccc1)NC(=O)CNC(=O)CNC(=O)CCOCCC(=O)NCCNc1ncc(-c2cc(C)cc(F)c2)c(N2CCC(N)CC2)c1-c1nc2ccc(Cl)cc2[nH]1)C(C)C [Compound 34] (X1-GGFG[NMeV]V[Dil][Dolaproine]-X2) | – | – | – | 0.16 nM | 3140 nM | 21.8 nM
9 | CC[C@H](C)[C@@H]([C@@H](CC(=O)N1CCC[C@H]1[C@H](OC)[C@@H](C)C(=O)N[C@H](C)[C@@H](O)c1ccccc1)OC)N(C)C(=O)[C@@H](NC(=O)[C@H](C(C)C)N(C)C(=O)OCc1ccc(NC(=O)[C@H](CCCNC(N)=O)NC(=O)[C@@H](NC(=O)[C@H](CCC(=O)O)NC(=O)CCOCCC(=O)NCCNc2ncc(-c3cc(C)cc(F)c3)c(N3CCC(N)CC3)c2-c2nc3ccc(Cl)cc3[nH]2)C(C)C)cc1)C(C)C [Compound 36] (X1-EV[Cit][PABC][NMeV]V[Dil][Dolaproine]-X2) | 0.25 nM | 44.1 nM | 12.9 nM | – | – | –
10 | CC[C@H](C)[C@@H]([C@@H](CC(=O)N1CCC[C@H]1[C@H](OC)[C@@H](C)C(=O)N[C@H](C)[C@@H](O)c1ccccc1)OC)N(C)C(=O)[C@@H](NC(=O)[C@H](C(C)C)N(C)C(=O)OCc1ccc(NC(=O)[C@H](CCCNC(N)=O)NC(=O)[C@@H](NC(=O)CCOCCNC(=O)CN2CCN(CC(=O)O)CCN(CC(=O)NCCNc3ncc(-c4cc(C)cc(F)c4)c(N4CCC(N)CC4)c3-c3nc4ccc(Cl)cc4[nH]3)CC2)C(C)C)cc1)C(C)C [Compound 37] | 0.071 nM | 102 nM | 13.7 nM | – | – | –
11 | CC[C@@]1(O)C(=O)OCc2c1cc1n(c2=O)Cc2c-1nc1cc(F)c(C)c3c1c2[C@@H](NC(=O)OCc1ccc(NC(=O)[C@H](CCCNC(N)=O)NC(=O)[C@@H](NC(=O)CCOCCOCCOCCOCCC(=O)NCCNc2ncc(-c4cc(C)cc(F)c4)c(N4CCC(N)CC4)c2-c2nc4ccc(Cl)cc4[nH]2)C(C)C)cc1)CC3 [Compound 38] | – | – | – | 0.11 nM | 59.4 nM | 1 nM
12 | CC[C@H](C)[C@@H]([C@@H](CC(=O)N1CCC[C@H]1[C@H](OC)[C@@H](C)C(=O)N[C@H](C)[C@@H](O)c1ccccc1)OC)N(C)C(=O)[C@@H](NC(=O)[C@H](C(C)C)N(C)C(=O)OCc1ccc(NC(=O)[C@H](CCCNC(N)=O)NC(=O)[C@@H](NC(=O)CN2CCN(CC(=O)O)CCN(CC(=O)NCCOCCOCCOCCOCCC(=O)NCCNc3ncc(-c4cc(C)cc(F)c4)c(N4CCC(N)CC4)c3-c3nc4ccc(Cl)cc4[nH]3)CC2)C(C)C)cc1)C(C)C [Compound 39] | 0.12 nM | 35.9 nM | 18.7 nM | – | – | –
13 | CC[C@H](C)[C@@H]([C@@H](CC(=O)N1CCC[C@H]1[C@H](OC)[C@@H](C)C(=O)N[C@@H](Cc1ccccc1)C(=O)O)OC)N(C)C(=O)[C@@H](NC(=O)[C@H](C(C)C)N(C)C(=O)OCc1ccc(NC(=O)[C@H](CCCNC(N)=O)NC(=O)[C@@H](NC(=O)CCOCCOCCOCCOCCC(=O)NCCNc2ncc(-c3cc(C)cc(F)c3)c(N3CCC(N)CC3)c2-c2nc3ccc(Cl)cc3[nH]2)C(C)C)cc1)C(C)C [Compound 42] (X4-V[Cit][PABC][NMeV]V[Dil][Dolaproine]F-OH) | 0.12 nM | 57.3 nM | 8.6 nM | – | – | –

— patent US12134610B2, “Somatostatin subtype-2 receptor (SST2R) targeted therapeutics and uses thereof” (priority 2022, dated 2024)
